Reference: patent EP3696177A1, “HETEROCYCLIC COMPOUNDS FOR THE CONTROL OF INVERTEBRATE PESTS” (BASF SE, priority 2019, dated 2020)

Key:
Assay type in all cases: in vivo
[1] = tested on: Tetranychus kanzawai; assay: Red spider mite (Tetranychus kanzawai) spray test on cowpea beans; settings: topical, 72 h, read-out: mortality in comparison with untreated controls
Experimental: The active compound is dissolved at the desired concentration in a mixture of 1:1 (vol:vol) distilled water: acetone. Add surfactant (Kinetic) is added at a rate of 0.01% (vol/vol). The test solution is prepared at the day of use.
Potted cowpea beans of 4-5 days of age are cleaned with tap water and sprayed with 1-2 ml of the test solution using air driven DeVilbiss® hand atomizer at 20- 30 psi (≈ 1,38 to 2,07 bar). The treated plants are allowed to air dry and afterwards inoculated with 30 or more mites by clipping a cassava leaf section from rearing population. Treated plants are placed inside a holding room at about 25-26°C and about 65-70% relative humidity. Estimate percent mortality is assessed 72 hours after treatment.

[2] = tested on: Nephotettix virescens; assay: Rice green leafhopper (Nephotettix virescens) spray test on rice seedlings; settings: adults, after 72 hours, read-out: mortality in comparison with untreated controls
Experimental: Four to five-week old rice seedlings with cut upper leaf portion are cleaned and washed 24 hours before spraying. The active compounds are formulated in 1:1 acetone:water (vol:vol), and 0.01% vol/vol surfactant (Kinetic) is added. Potted rice seedlings are sprayed with 5-6 ml test solution, air dried, covered with Mylar cages and inoculated with 10 adults. Treated rice plants are kept at about 28-29°C and relative humidity of about 50-60%. Percent mortality is recorded after 72 hours.

[3] = tested on: Aedes aegypti; assay: whole plant or invertebrate; settings: 48 h, A. aegypti larvae, incubated 2 days, read-out: mortality in comparison with untreated controls (larval mortality)
Experimental: For evaluating control of yellow fever mosquito (Aedes aegypti) the test unit consisted of 96-well-microtiter plates containing 200µl of tap water per well and 5-15 freshly hatched A. aegypti larvae.
The active compounds were formulated using a solution containing 75% (v/v) water and 25% (v/v) DMSO. Different concentrations of formulated compounds or mixtures were sprayed onto the insect diet at 2.5µl, using a custom built micro atomizer, at two replications.
After application, microtiter plates were incubated at 28 + 1°C, 80 + 5 % RH for 2 days. Larval mortality was then visually assessed.

[4] = tested on: Heliothis virescens; assay: Tobacco budworm (Heliothis virescens) insect diet microtiter plate test; settings: 120 h, read-out: mortality in comparison with untreated controls (egg and larval mortality)
Experimental: For evaluating control of tobacco budworm (Heliothis virescens) the test unit consisted of 96-well-microtiter plates containing an insect diet and 15-25 H. virescens eggs.
The compounds were formulated using a solution containing 75% v/v water and 25% v/v DMSO. Different concentrations of formulated compounds were sprayed onto the insect diet at 10 µl, us-ing a custom built micro atomizer, at two replications.
After application, microtiter plates were incubated at about 28 + 1°C and about 80 + 5 % relative humidity for 5 days. Egg and larval mortality was then visually assessed.

[5] = tested on: Plutella xylostella; assay: Diamond back moth (Plutella xylostella) cabbage leaf disc dip test; settings: foliar, 72 h, read-out: mortality in comparison with untreated controls
Experimental: The active compound is dissolved at the desired concentration in a mixture of 1:1 (vol:vol) distilled water: acetone. Surfactant (Kinetic) is added at a rate of 0.01% (vol/vol). The test solution is pre-pared at the day of use.
Cabbage leaf discs (60mm in diameter) are dipped in test solution and air-dried. Treated leaves are placed in petri dishes lined with moistened filter paper and inoculated with ten 3rd instar larvae. Mortality is recorded 72 hours after treatment. Feeding damage is also recorded using a scale of 0-100%.

[6] = tested on: Nezara viridula; assay: Green soldier stink bug (Nezara viridula) soybean pod spray test; settings: 120 h, late 3rd instar N. viridula, after 5 days, read-out: mortality in comparison with untreated controls
Experimental: The active compound is dissolved at the desired concentration in a mixture of 1:1 (vol:vol) distilled water: aceteone. Surfactant (Kinetic) is added at a rate of 0.01% (vol/vol).The test solution is prepared at the day of use.
Soybean pods are placed in 90 x 50 mm glass Petri dishes lined with moistened filter paper and inoculated with ten late 3rd instar N. viridula. Using a hand atomizer, an approximately 2 ml solution is sprayed into each Petri dish. Treated set-up is kept at about 25-26°C and relative humidity of about 65-70%. Percent mortality is recorded after 5 days.

[7] = tested on: Megoura viciae; assay: Vetch aphid (Megoura viciae) broad bean leaf disk test; settings: foliar, 120 h, read-out: mortality in comparison with untreated controls
Experimental: For evaluating control of vetch aphid (Megoura viciae) through contact or systemic means the test unit consisted of 24-well-microtiter plates containing broad bean leaf disks.
The compounds were formulated using a solution containing 75% v/v water and 25% v/v DMSO. Different concentrations of formulated compounds were sprayed onto the leaf disks at 2.5 µl, us-ing a custom built micro atomizer, at two replications.
After application, the leaf disks were air-dried and 5 - 8 adult aphids placed on the leaf disks in-side the microtiter plate wells. The aphids were then allowed to suck on the treated leaf disks and incubated at about 23 + 1°C and about 50 + 5 % relative humidity for 5 days. Aphid mortality and fecundity was then visually assessed.

[8] = tested on: Myzus persicae; assay: Green peach aphid (Myzus persicae) artificial diet/membrane systemic test; settings: 72 h, read-out: mortality in comparison with untreated controls
Source text: For evaluating control of green peach aphid (Myzus persicae) through systemic means the test unit consisted of 96-well-microtiter plates containing liquid artificial diet under an artificial membrane.
The compounds were formulated using a solution containing 75% v/v water and 25% v/v DMSO. Different concentrations of formulated compounds were pipetted into the aphid diet, using a cus-tom built pipetter, at two replications.
After application, 5 - 8 adult aphids were placed on the artificial membrane inside the microtiter plate wells. The aphids were then allowed to suck on the treated aphid diet and incubated at about 23 + 1°C and about 50 + 5 % relative humidity for 3 days. Aphid mortality and fecundity was then visually assessed.

[9] = tested on: Anthonomus grandis; assay: Boll weevil (Anthonomus grandis) insect diet microtiter plate test; settings: 120 h, read-out: mortality in comparison with untreated controls (egg and larval mortality)
Experimental: For evaluating control of boll weevil (Anthonomus grandis) the test unit consisted of 96-well-microtiter plates containing an insect diet and 5-10 A. grandis eggs.
The compounds were formulated using a solution containing 75% v/v water and 25% v/v DMSO. Different concentrations of formulated compounds were sprayed onto the insect diet at 5 µl, using a custom built micro atomizer, at two replications.
After application, microtiter plates were incubated at about 25 + 1°C and about 75 + 5 % relative humidity for 5 days. Egg and larval mortality was then visually assessed.

[10] = tested on: dichromothrips corbetti; assay: Orchid thrips floral-immersion test; settings: 72 h, read-out: mortality in comparison with untreated controls
Experimental: Dichromothrips corbetti adults used for bioassay are obtained from a colony maintained continu-ously under laboratory conditions. For testing purposes, the test compound is diluted in a 1:1 mix-ture of acetone:water (vol:vol), plus Kinetic at a rate of 0.01% v/v.
Thrips potency of each compound is evaluated by using a floral-immersion technique. Each orchid petal is dipped into treatment solution and allowed to dry in Petri dishes. Treated petals are placed into individual re-sealable plastic along with about 20 adult thrips. All test arenas are held under dark condition and a temperature of about 28°C for duration of the assay. The percent mor-tality is recorded 72 hours after treatment.

[11] = tested on: Caenorhabditis elegans; assay: Caenorhabditis elegans liquid diet microtiter plate test; settings: 96 h, read-out: mortality in comparison with untreated controls (nematode motility (mortality))
Experimental: For evaluating control of Caenorhabditis elegans through contact or systemic means the test unit consisted of 96-well-microtiter plates containing a liquid diet.
The compounds or mixtures were formulated using a solution containing 75% water and 25% DMSO. Different concentrations of formulated compounds were sprayed into the microtiter plate wells at 5µl per well, using a custom built micro atomizer, at two replications. Mixed instar 60-100 C. elegans were transferred into the micro-titer plate wells. After application, the nematodes were incubated at 18 + 1°C, 70 + 5 % RH for 4 days. Nematode motility (mortality) was then visually assessed.

[12] = tested on: Aphis craccivora; assay: Cowpea aphid (Aphis craccivora) spray test on potted cowpea plants; settings: aphids of various stages, after 72 hours, read-out: mortality in comparison with untreated controls
Experimental: The active compound is dissolved at the desired concentration in a mixture of 1:1 (vol: vol) distilled water: acetone. Surfactant (Kinetic) is added at a rate of 0.01% (vol/vol). The test solution is prepared at the day of use.
Potted cowpea plants are colonized with approximately 30 - 50 aphids of various stages by man-ually transferring aphid-infested leaf clippings 24 hours before application. Plants are sprayed with the test solutions using a DeVilbiss® hand atomizer at 20- 30 psi (≈ 1.38 to 2.07 bar) after the pest population has been checked. Treated plants are maintained on light carts at about 25- 26°C. Estimate percent mortality is assessed after 72 hours.

Cc1cc(C2=NOC(c3cc(Cl)cc(Cl)c3)(C(F)(F)F)C2)ccc1C(=O)NC1SC(=O)N(C)C1=O (stereo not drawn) [Compound I-1-4, 4-[5-(3,5-dichlorophenyl)-5-(trifluoromethyl)-4H-isoxazol-3-yl]-2-methyl-N-(3-methyl-2,4-dioxo-thiazolidin-5-yl)benzamide]
> 75%: mortality at 300 ppm [1] | mortality at 300 ppm [2] | mortality at 2500 ppm [3] | mortality at 2500 ppm [4] | mortality at 300 ppm [5] | mortality at 300 ppm [6] | mortality at 2500 ppm [7] | mortality at 2500 ppm [8] | mortality at 2500 ppm [9] | mortality at 300 ppm [10]

Cc1cc(C2=NOC(c3cc(Cl)cc(Cl)c3)(C(F)(F)F)C2)ccc1C(=O)NCC1OCN(C)C1=O (stereo not drawn) [Compound I-3-11]
> 75%: mortality at 300 ppm [1] | mortality at 2500 ppm [3] | mortality at 2500 ppm [4] | mortality at 300 ppm [5] | mortality at 2500 ppm [11] | mortality at 2500 ppm [7] | mortality at 300 ppm [12] | mortality at 2500 ppm [8] | mortality at 2500 ppm [9] | mortality at 300 ppm [10]

CC(C)N1C(=O)SC(NC(=O)c2ccc(C3=NOC(c4cc(Cl)cc(Cl)c4)(C(F)(F)F)C3)cc2Cl)C1=O (stereo not drawn) [Compound I-1-3]
> 75%: mortality at 300 ppm [1] | mortality at 2500 ppm [3] | mortality at 2500 ppm [4] | mortality at 300 ppm [5] | mortality at 300 ppm [6] | mortality at 2500 ppm [11] | mortality at 2500 ppm [7] | mortality at 2500 ppm [8] | mortality at 2500 ppm [9] | mortality at 300 ppm [10]

O=C(NCC1OCN(CC2CC2)C1=O)c1ccc(C2=NOC(c3cc(Cl)c(F)c(Cl)c3)(C(F)(F)F)C2)c2c1CCC2 (stereo not drawn) [Compound I-3-2]
> 75%: mortality at 300 ppm [1] | mortality at 300 ppm [2] | mortality at 2500 ppm [3] | mortality at 2500 ppm [4] | mortality at 300 ppm [5] | mortality at 2500 ppm [11] | mortality at 2500 ppm [7] | mortality at 2500 ppm [8] | mortality at 2500 ppm [9] | mortality at 300 ppm [10]

Cc1cc(C2=NOC(c3cc(Cl)cc(Cl)c3)(C(F)(F)F)C2)ccc1C(=O)NC1SC(=O)N(C(C)C)C1=O (stereo not drawn) [Compound I-1-6]
> 75%: mortality at 300 ppm [2] | mortality at 2500 ppm [3] | mortality at 2500 ppm [4] | mortality at 300 ppm [5] | mortality at 300 ppm [6] | mortality at 2500 ppm [7] | mortality at 300 ppm [12] | mortality at 2500 ppm [8] | mortality at 2500 ppm [9] | mortality at 300 ppm [10]

CN1C(=O)SC(NC(=O)c2ccc(C3=NOC(c4cc(Cl)cc(C(F)(F)F)c4)(C(F)(F)F)C3)c3c2CCC3)C1=O (stereo not drawn) [Compound I-1-8]
> 75%: mortality at 300 ppm [1] | mortality at 300 ppm [2] | mortality at 2500 ppm [3] | mortality at 2500 ppm [4] | mortality at 300 ppm [5] | mortality at 300 ppm [6] | mortality at 2500 ppm [7] | mortality at 2500 ppm [8] | mortality at 2500 ppm [9] | mortality at 300 ppm [10]

Cc1cc(C2=NOC(c3cc(Cl)cc(Cl)c3)(C(F)(F)F)C2)ccc1C(=O)NCC1OCN(CC(F)(F)F)C1=O (stereo not drawn) [Compound I-3-13]
> 75%: mortality at 300 ppm [1] | mortality at 2500 ppm [3] | mortality at 2500 ppm [4] | mortality at 300 ppm [5] | mortality at 2500 ppm [11] | mortality at 2500 ppm [7] | mortality at 2500 ppm [8] | mortality at 2500 ppm [9] | mortality at 300 ppm [10]
